Several values for one entry are separate records, joined by “and”; a condition that tells them apart may be missing. Equal values may be shown once.
Assays:
[1] = target: T1, NMDA receptor (GRIN1/GRIN2A subunits) (Homo sapiens, UniProt Q05586+Q12879); assay: NMDA potentiation, whole-cell patch-clamp in HEK cells; assay type: cell-based; settings: currents evoked by 30 μM NMDA and 5.0 μM Glycine, holding potential −80 mV; for NMDA 1a2A (%) Potentiation 0.1 uM: compound 0.1 uM; for NMDA 1a2A (%) Potentiation 1 uM: compound 1 uM
T1 construct: expressed in transfected cells

[2] = target: NMDA (NR1a/NR2A) (Homo sapiens, UniProt Q05586+Q12879); settings: reported, Madau et al. / Connick et al. 2009; cited from earlier work
[3] = test system: NMDA receptors; settings: background statement; cited from earlier work

T1 sequence (Q12879 23-1464, other chains not shown): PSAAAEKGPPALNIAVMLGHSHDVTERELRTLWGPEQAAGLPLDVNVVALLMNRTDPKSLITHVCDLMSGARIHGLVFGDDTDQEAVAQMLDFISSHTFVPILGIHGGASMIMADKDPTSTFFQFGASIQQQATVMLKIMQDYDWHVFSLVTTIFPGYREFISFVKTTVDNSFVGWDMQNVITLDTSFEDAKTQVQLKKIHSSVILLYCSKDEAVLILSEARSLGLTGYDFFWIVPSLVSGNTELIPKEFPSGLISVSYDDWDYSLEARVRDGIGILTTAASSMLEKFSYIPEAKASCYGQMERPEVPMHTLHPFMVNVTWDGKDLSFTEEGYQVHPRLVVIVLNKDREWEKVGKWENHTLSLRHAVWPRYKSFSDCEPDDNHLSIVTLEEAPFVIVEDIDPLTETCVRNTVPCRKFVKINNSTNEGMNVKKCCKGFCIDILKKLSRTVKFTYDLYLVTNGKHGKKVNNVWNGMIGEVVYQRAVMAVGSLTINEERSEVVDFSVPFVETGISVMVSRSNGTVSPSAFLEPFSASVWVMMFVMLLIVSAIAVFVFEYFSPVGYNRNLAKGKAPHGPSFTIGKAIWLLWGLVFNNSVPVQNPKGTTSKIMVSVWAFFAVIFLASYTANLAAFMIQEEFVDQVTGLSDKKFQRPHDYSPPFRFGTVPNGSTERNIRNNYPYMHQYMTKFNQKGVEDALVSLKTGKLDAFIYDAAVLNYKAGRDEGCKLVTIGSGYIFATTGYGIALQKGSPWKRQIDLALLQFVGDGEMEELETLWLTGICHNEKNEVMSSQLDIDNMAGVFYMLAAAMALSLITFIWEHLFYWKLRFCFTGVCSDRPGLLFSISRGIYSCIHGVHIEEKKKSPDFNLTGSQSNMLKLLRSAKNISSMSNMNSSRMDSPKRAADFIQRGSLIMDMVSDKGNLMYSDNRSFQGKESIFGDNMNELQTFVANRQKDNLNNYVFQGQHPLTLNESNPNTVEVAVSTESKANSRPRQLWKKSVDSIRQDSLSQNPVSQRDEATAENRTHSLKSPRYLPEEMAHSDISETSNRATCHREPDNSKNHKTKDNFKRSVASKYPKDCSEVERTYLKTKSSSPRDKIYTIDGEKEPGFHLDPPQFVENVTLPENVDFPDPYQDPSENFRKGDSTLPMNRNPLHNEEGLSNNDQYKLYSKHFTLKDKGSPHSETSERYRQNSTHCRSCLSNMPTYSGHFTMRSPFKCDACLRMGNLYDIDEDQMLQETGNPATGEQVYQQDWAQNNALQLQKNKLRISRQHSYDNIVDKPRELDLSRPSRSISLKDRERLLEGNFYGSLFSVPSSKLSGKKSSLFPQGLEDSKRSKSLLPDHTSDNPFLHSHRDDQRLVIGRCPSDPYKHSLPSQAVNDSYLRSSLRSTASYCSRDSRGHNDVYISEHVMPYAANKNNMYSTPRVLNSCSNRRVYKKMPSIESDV
Sequence of NMDA (NR1a/NR2A) (Q12879 23-1464, other chains not shown): as above

| Compound | NMDA 1a2A (%) Potentiation 0.1 uM [1] | NMDA 1a2A (%) Potentiation 1 uM [1] | modulation of NMDA (NR1a/NR2A) [2] | selectivity NMDA over GABAA [2] | modulation of NMDA receptors [3] |
| --- | --- | --- | --- | --- | --- |
| CC(CCC(C)(C)O)[C@H]1CC[C@H]2[C@@H]3CC=C4C[C@@H](O)CC[C@]4(C)[C@H]3CC[C@]12C (stereo partly shown) | 55% | 197% |  |  |  |
| C[C@H](CCC(C)(C)O)[C@H]1CC[C@H]2[C@@H]3CC=C4C[C@@](C)(O)CC[C@]4(C)[C@H]3CC[C@]12C | 128% | 348% |  |  |  |
| C[C@H](CCC(C)(C)O)[C@H]1CC[C@H]2[C@@H]3CC=C4C[C@@H](O)CC[C@@H]4[C@H]3CC[C@]12C | 28% | 66% |  |  |  |
| C[C@H](CCC1(O)CC1)[C@H]1CC[C@H]2[C@@H]3CC=C4C[C@@H](O)CC[C@]4(C)[C@H]3CC[C@]12C | 74% | 171% |  |  |  |
| C[C@H](CC(F)(F)CO)[C@H]1CC[C@H]2[C@@H]3CC=C4C[C@@H](O)CC[C@]4(C)[C@H]3CC[C@]12C | 31% | 95% |  |  |  |
| C[C@H](CCCO)[C@H]1CC[C@H]2[C@@H]3CC=C4C[C@@H](O)CC[C@]4(C)[C@H]3CC[C@]12C | 39% | 127% |  |  |  |
| C[C@H](CCC(C)(C)O)[C@H]1CC[C@H]2[C@@H]3CC[C@H]4C[C@@H](O)CC[C@@H]4[C@H]3CC[C@]12C | 19% | 44% |  |  |  |
| C[C@@H]([C@H]1CC[C@H]2[C@@H]3CC=C4C[C@@H](O)CC[C@]4(C)[C@H]3CC[C@]12C)C(C)(C)O | 4% | 24% |  |  |  |
| CC(O)CC[C@@H](C)[C@H]1CC[C@H]2[C@@H]3CC=C4C[C@@H](O)CC[C@]4(C)[C@H]3CC[C@]12C (stereo partly shown) | 42% | 98% |  |  |  |
| C[C@H](CCC(C)(C)O)[C@H]1CC[C@H]2[C@@H]3CC=C4C[C@](C)(O)CC[C@]4(C)[C@H]3CC[C@]12C | 13% | 60% |  |  |  |
| C[C@H](CCC(C)(C)N)[C@H]1CC[C@H]2[C@@H]3CC=C4C[C@@H](O)CC[C@]4(C)[C@H]3CC[C@]12C | −8% | −19% |  |  |  |
| CC[C@]1(O)CC[C@@]2(C)C(=CC[C@H]3[C@@H]4CC[C@H]([C@H](C)CCC(C)(C)O)[C@@]4(C)CC[C@@H]32)C1 | 181% | 286% |  |  |  |
| CC[C@@]1(O)CC[C@@]2(C)C(=CC[C@H]3[C@@H]4CC[C@H]([C@H](C)CCC(C)(C)O)[C@@]4(C)CC[C@@H]32)C1 | 23% | 139% |  |  |  |
| CNC(C)(C)CC[C@@H](C)[C@H]1CC[C@H]2[C@@H]3CC=C4C[C@@H](O)CC[C@]4(C)[C@H]3CC[C@]12C | 25% | 19% |  |  |  |
| C[C@H](CCC(C)(C)O)[C@H]1CC[C@H]2[C@@H]3CC[C@H]4C[C@@](C)(O)CC[C@@H]4[C@H]3CC[C@]12C | 25% | 114% |  |  |  |
| C[C@H](CCC(C)(C)O)[C@H]1CC[C@H]2[C@@H]3CC[C@H]4C[C@](C)(O)CC[C@@H]4[C@H]3CC[C@]12C | 21% | 52% |  |  |  |

| Compound | NMDA 1a2A (%) Potentiation 0.1 uM [1] | NMDA 1a2A (%) Potentiation 1 uM [1] | modulation of NMDA (NR1a/NR2A) [2] | selectivity NMDA over GABAA [2] | modulation of NMDA receptors [3] |
| --- | --- | --- | --- | --- | --- |
| C[C@H](CCC(C)(C)O)[C@H]1CC[C@H]2[C@@H]3CC[C@H]4C[C@](O)(C(F)(F)F)CC[C@@H]4[C@H]3CC[C@]12C | 14% | 85% |  |  |  |
| C[C@H](CCC(C)(C)O)[C@H]1CC[C@H]2[C@@H]3CC[C@H]4C[C@@H](O)CC[C@]4(C)[C@H]3CC[C@]12C | 18% | 85% |  |  |  |
| C[C@H](CCC(C)(C)O)[C@H]1CC[C@H]2[C@@H]3CC[C@H]4C[C@](O)(C(F)(F)F)CC[C@]4(C)[C@H]3CC[C@]12C | 59% | 172% |  |  |  |
| C[C@H](CCC(C)(C)O)[C@H]1CC[C@H]2[C@@H]3CC[C@H]4C[C@](C)(O)CC[C@]4(C)[C@H]3CC[C@]12C | 19% | 30% |  |  |  |
| C[C@H](CCC(C)(C)O)[C@H]1CC[C@H]2[C@@H]3CC[C@H]4C[C@@](C)(O)CC[C@]4(C)[C@H]3CC[C@]12C | 87% and 70% | 278% and 238% |  |  |  |
| C[C@H](CC(C)(C)O)[C@H]1CC[C@H]2[C@@H]3CC=C4C[C@@H](O)CC[C@]4(C)[C@H]3CC[C@]12C | −5% | 27% |  |  |  |
| CC(C)[C@H](O)CC[C@@H](C)[C@H]1CC[C@H]2[C@@H]3CC=C4C[C@@H](O)CC[C@]4(C)[C@H]3CC[C@]12C | 82% | 137% |  |  |  |
| C[C@H](CCC(C)(C)O)[C@H]1CC[C@H]2[C@@H]3CC[C@@H]4C[C@@](O)(C(F)(F)F)CC[C@]4(C)[C@H]3CC[C@]12C | 9% | 18% |  |  |  |
| COC[C@@]1(O)CC[C@@]2(C)[C@@H](CC[C@@H]3[C@@H]2CC[C@]2(C)[C@@H]([C@H](C)CCC(C)(C)O)CC[C@@H]32)C1 | 8% | 25% |  |  |  |
| COC[C@]1(O)CC[C@@]2(C)[C@@H](CC[C@@H]3[C@@H]2CC[C@]2(C)[C@@H]([C@H](C)CCC(C)(C)O)CC[C@@H]32)C1 | 14% | 110% |  |  |  |
| CC(C)(O)CCC[C@H]1CCC2C3CC[C@H]4C[C@@](C)(O)CC[C@]4(C)C3CC[C@@]21C (stereo partly shown) | 17% | 105% |  |  |  |
| CC(C)(O)CCO[C@H]1CCC2C3CC[C@H]4C[C@@](C)(O)CC[C@]4(C)C3CC[C@@]21C (stereo partly shown) | 6% | 27% |  |  |  |
| CC(C)(O)COC[C@H]1CCC2C3CC=C4C[C@@](C)(O)CC[C@]4(C)C3CC[C@@]21C (stereo partly shown) | −5% | −14% |  |  |  |
| C[C@H](CCC(C)(C)O)[C@H]1CC[C@H]2[C@@H]3CC=C4C[C@@H](O)CC[C@]4(C)[C@H]3CC[C@]12C [Org-1] |  |  | positive modulator | selectively modulate NMDA over GABAA |  |
| pregnenolone sulfate [PS] |  |  |  |  | positively modulated |

From US12129275B2, “Neuroactive steroids, compositions, and uses thereof” (SAGE THERAPEUTICS, INC., priority 2011, dated 2024)
